In patent US9211305B2, “Pharmaceutical compositions with glycosaminoglycans and use thereof in the treatment of chronic ulcers” (LABORATORIOS FARMACEUTICOS ROVI S.A., priority 2008, dated 2015):
Values joined by “and” are separate entries in the source; they are usually repeats but may differ in a detail not shown here. Identical values can stand only once. “Also recorded” adds a separate entry of the source.

Columns and labels:
[1] = test system: non-diabetic rats; experiment: Example 3: percentage of ulcer healing in non-diabetic rats, SC route; type: in vivo, Wistar rat; details: for percentage of healing of day 9 with respect to day 1, Average: Group 1, non-diabetic, 217 IU/rat SC
Protocol: (§1) Diabetes was induced in 6 of all the rats and 4 of them were left as a non-diabetic control, to test the result of the healing of chronic ulcers not caused by diabetes.
Once the rats are ready, 2 ulcers with a diameter of 1 cm each were made on them using a scalpel. An anesthesia/analgesia protocol with ketamine/xylazine was followed according to the recommendations of the book: “Handbook of laboratory animal management and welfare”:
The ulcers were treated with water and cleaned for 9 days after the ulceration. A corresponding solution was administered to each group by SC route (100 μL) for the treatment of the ulcers. The diameter of the ulcer was quantified by means of tracing the ulcer onto a transparency to see the progress of the healing.

[2] = in vivo; cited from earlier work
[3] = test system: C57BL/KS.Cg-m Lepr^db+/+m mouse; experiment: Example 5: wound healing in non-diabetic mouse, subcutaneous route; type: in vivo
Protocol: The C57BL/KS.Cg-m Lepr^db+/+m mouse is the non-diabetic analog of the mouse used in the previous example.
On the first day of the assay, the animals were anesthetized (ketamine+xylazine, 100+10 mg/kg, i.m.). The back of the animal was shaved, the area was cleaned with disinfectant and the location of the wound was marked by means of a template to make its position the same in all the animals.
The wound was made by means of a circular incision with a diameter of approximately 1.5 cm, the skin of the mid-dorsal area being removed. A semipermeable dressing was subsequently placed on the wound. 1 mL/animal of physiological serum was administered by i.p. route after the intervention.
The wound area was calculated as the percentage of reduction thereof to evaluate the degree of curing thereof, by means of the standardized formula: […]
The measurement performed immediately after the intervention or incision was used as the baseline area. On the following day and for a total of 14 days, the assigned treatments were administered to the animals.
On the following day and for a total of 14 days, 10 ml/kg were administered to the animals by subcutaneous route in the back of the animal, avoiding the area of the wound.
The follow-up of the animals was performed up to a period of 21 days. The assessment was performed by means of digital photography of the wound and subsequent image analysis.
The animals were sacrificed on day 21 of the study and the area of the skin where the wound was caused was stored in formol to perform a histopathological evaluation (hematoxylin-eosin staining).
Each section was given a histological score in the grade 1 to grade V range, where I means uncured wound and V means completely epithelialized wound. The score is based on the degree of cell invasion, the formation of granulation tissue, vascularization and epithelialization.

[4] = test system: diabetic wistar rat; experiment: Example 1: ulcer area reduction in streptozocin-diabetized rats, subcutaneous route; type: in vivo
Protocol: To perform the present example, doses of 45 mg/kg of streptozocin (STZ) were administered by intramuscular route to make a batch of 8 rats diabetic (Andrades Ja et al. Engineering, expression, and renaturation of a collagen-targeted human bFGF fusion protein. Growth Factors. 2001; 18(4):261-75).
(§2) Male wistar rats with an average weight of 250 g per rat were used, to which a dose of 11.25 mg STZ per rat was administered by means of the intramuscular administration of 100 μL in the left paw of each rat.
(§3) Sweetened water (350 mg/dL) was administered to all the rats for three days and glucose measurements were performed with a glucometer every day to verify that the rats were indeed diabetized. For this reason, before the administration and at time 4 days after the administration of streptozocin, a drop of blood was extracted from the rat tail vein for the subsequent quantification of glycemia and to see whether they were diabetic before starting the ulceration assay.
Once the rats were diabetized, 4 ulcers with a diameter of 1 cm each were made on them using a scalpel. An anesthesia/analgesia protocol with Ketamine/xylazine was followed according to the recommendations of the book: “Handbook of laboratory animal management and welfare”:
The ulcers were treated with water and cleaned for 9 days after the ulceration.
The administrations of bemiparin were performed by means of a bemiparin solution by subcutaneous route (100 μL) for the treatment of the ulcers.
The diameter of the ulcer was quantified by means of tracing the ulcer onto a transparency to see the progress of the healing.

[5] = test system: factor Xa; experiment: Anti-factor Xa activity; type: biochemical
[6] = test system: C57BL/KsJ-db/db diabetic mouse; experiment: Example 4: wound healing in genetically diabetic mouse, topical route; type: in vivo; details: topical 1000 IU/kg; for histopathological Grade / histopathological Score: 14 days, sacrifice day 15
Protocol: In this case, topical formulations were prepared for the direct administration on the ulcers, the carriers of which formulations are formed by Carbopol, Phenonip®, Span 80, Glycerol and water.
The ulceration and measurement of the area were performed as detailed in the subcutaneous administration assays. On the day after the incision and for a total of 14 days, the assigned treatments, 0.15 ml/animal by topical route in the back of the animal, above the wound, were administered to the animals.
The follow-up of the animals was performed up to a period of 14 days (average time necessary for the healing of the wounds in this animal model). The assessment was performed by means of digital photography of the wound and subsequent image analysis.
The animals were sacrificed on the day after the last administration (day 15) and the area where the wound was made was extracted. The rear portion of the area containing the wound was stored in formol for its histological processing (hematoxylin-eosin staining).
The results were based on the score given by the method of Greenhalgh et al. (1990). Each block was given a histological score from 1 to 15, where 1 means uncured wound and 15 means completely epithelialized wound. The score is based on the degree of cell invasion, the formation of granulation tissue, vascularization and epithelialization: […]

[7] = test system: diabetic wistar rat; experiment: Example 3: percentage of ulcer healing in diabetic rats, SC route; type: in vivo; details: 0.22 mg/rat SC, one rat
Protocol: To perform the present embodiment, doses of 45 mg/kg of streptozocin (STZ) were administered by intramuscular route to make a batch of 10 rats diabetic (Andrades Ja et al. Engineering, expression, and renaturation of a collagen-targeted human bFGF fusion protein. Growth Factors. 2001; 18(4):261-75).
as §2, §1
as §3, with “to” for “to all”, “and” for “and to”
Once the rats are ready, 2 ulcers with a diameter of 1 cm each were made on them using a scalpel. […]

[8] = subcutaneous 14 days, sacrifice day 21, doses as in the 23rd table

Molecule | macroscopic healing process ([1]; Group 1 (217 IU/rat) compared with the rest of groups) | percentage of healing of day 9 with respect to day 1, Average [1] [%] | percentage of healing of day 9 with respect to day 1, Average ([1]; listed as bemiparin) [%] | Plasma Half-Life [2] [h] | Plasma Half-Life Range [2] [h] | healing rate with respect to the control ([3]; subcutaneous 1000 IU Xa/kg) | histopathological Grade [3, 8] | histopathological Score [3, 8] | percentage of area reduction of day 9 with respect to day 1, Average ([4]; 108 IU rat, subcutaneous, ulcer E excluded) [%] | macroscopic healing process ([4]; 217 IU rat compared with 108 IU rat) | percentage of area reduction of day 9 with respect to day 1, Average ([4]; 217 IU rat, subcutaneous) [%] | percentage of area reduction of day 9 with respect to day 1 ([4]; single ulcers, 217 IU rat, subcutaneous) | anti-Xa/anti-IIa ratio [5] | histopathological Grade [6] | histopathological Score [6] | area reduction ([6]; end of the treatment (14 days)) | percentage of healing of day 9 with respect to day 1, Average [7] [%] | percentage of healing of day 9 with respect to day 1 ([7]; single ulcers)
Bemiparin | macroscopically much better | 71.82 | 71.82 | 5.3 | 5.2 to 5.4 | does not improve the healing rate | III (7-9 Moderately thick granulation tissue. It can vary from being dominated by inflammatory cells to greater presence of fibroblasts and collagen deposition, extensive neovascularization, minimum to moderate epithelial migration.) | 8 | 24.39 ± 7.47 | macroscopically much better | 27.35 ± 7.25 | 26.2% and 20.14% and 25.64% and 37.43% | greater than 8 | III (7-9 Moderately thick granulation tissue. It can vary from being dominated by inflammatory cells to greater presence of fibroblasts and collagen deposition, extensive neovascularization, minimum to moderate epithelial migration.) | 8.7 | greater than 60% |  | 
CO[C@H]1O[C@H](COS(=O)(=O)O)[C@@H](O[C@@H]2O[C@@H](C(=O)O)[C@@H](O[C@H]3O[C@H](COS(=O)(=O)O)[C@@H](O[C@@H]4O[C@H](C(=O)O)[C@@H](O[C@H]5O[C@H](COS(=O)(=O)O)[C@@H](O)[C@H](O)[C@H]5NS(=O)(=O)O)[C@H](O)[C@H]4O)[C@H](OS(=O)(=O)O)[C@H]3NS(=O)(=O)O)[C@H](O)[C@H]2OS(=O)(=O)O)[C@H](O)[C@H]1NS(=O)(=O)O [Fondaparinux] |  |  |  |  |  |  |  |  |  |  |  |  |  | III (7-9 Moderately thick granulation tissue. It can vary from being dominated by inflammatory cells to greater presence of fibroblasts and collagen deposition, extensive neovascularization, minimum to moderate epithelial migration.) | 8.6 |  | 50.22 | A 50.99%; also recorded: B 49.55%
